Measured values: ChEMBL document CHEMBL1121858, “Synthesis and antimalarial activity of 8-[(1-alkyl-4-aminobutyl)amino]-6-methoxy-4-methylquinolines” (1981)
Where “and” joins values, the source holds several entries; their conditions need not be identical. Equal values may be shown once.

Legend:
Type in all cases: functional
Mus musculus [1] = experiment: Mean survival time of Plasmodium berghei infected mice (Mus musculus) after administration of single dose of 160 mg/kg intravenously; conditions: route intravenous
Mus musculus [2] = experiment: Mean survival time of Plasmodium berghei infected mice (Mus musculus) after administration of single dose of 20 mg/kg intravenously; conditions: route intravenous
Mus musculus [3] = experiment: Mean survival time of Plasmodium berghei infected mice (Mus musculus) after administration of single dose of […] intravenously
Mus musculus [4] = experiment: Mean survival time of Plasmodium berghei infected mice (Mus musculus) after administration of single dose of 40 mg/kg intravenously; conditions: route intravenous
Mus musculus [5] = experiment: Mean survival time of Plasmodium berghei infected mice (Mus musculus) after administration of single dose of 640 mg/kg intravenously; conditions: route intravenous
Mus musculus [6] = experiment: Mean survival time of Plasmodium berghei infected mice (Mus musculus) after administration of single dose of 80 mg/kg intravenously; conditions: route intravenous

Compound	MST (Mus musculus [1])	MST (Mus musculus [2])	MST (Mus musculus [3])	MST (Mus musculus [4])	MST (Mus musculus [5])	MST (Mus musculus [6])	MST (Mus musculus [1]; 160 mg/kg)	MST (Mus musculus [2]; 20 mg/kg)	MST (Mus musculus [4]; 40 mg/kg)	MST (Mus musculus [6]; 80 mg/kg)
COc1cc(NC(CCCN)C(C)C)c2nccc(C)c2c1.O=P(O)(O)O (centres undefined)	7.8 days	3.4 days	7.2 days	5.2 days	1 days	6.8 days				
CCCC(CCCN)Nc1cc(OC)cc2c(C)ccnc12.O=P(O)(O)O (centres undefined)	6.3 days	3.1 days	9.1 days	4.1 days	12.3 days	5.7 days				
CCC(CCCN)Nc1cc(OC)cc2c(C)ccnc12.O=P(O)(O)O (centres undefined)	11.5 days	7.3 days	5 days	7.9 days	5 days	9.7 days				
COc1cc(NC(C)CCCN)c2ncccc2c1.O=P(O)(O)O.O=P(O)(O)O (centres undefined) [PRIMAQUINE PHOSPHATE]			5 days		5 days		7 days and 10.8 days	2.2 days and 4 days	4.2 days and 5 days	6.4 days and 9.4 days
